Laboratory results published in the Biogen ADME set (Fang et al. 2023).
Converted amounts (≈) assume the structure as drawn.

Details: for aqueous solubility: pH 6.8

MDR1-MDCK efflux ratio | intrinsic clearance, human liver microsomes [mL/min/kg] | intrinsic clearance, rat liver microsomes [mL/min/kg] | aqueous solubility [µg/mL] | fraction unbound, human plasma | fraction unbound, rat plasma | SMILES
0.524 | 28.4 | 510 | 58.3 (≈ 238 µM) | – | – | Cc1noc(C(C)C)c1C(=O)Nc1ccccn1
0.683 | 126 | 445 | 34.9 (≈ 88.4 µM) | – | – | O=C(c1ccccc1)N1CCN(C(=O)c2ccc(-c3ccccc3Cl)o2)CC1
4.26 | – | – | 0.85 (≈ 2.23 µM) | – | – | O=C1N=C(N2CCN(c3ccccc3)CC2)S/C1=C\c1ccc(O)cc1O
4.76 | 11.6 | 278 | – | – | – | CCc1cc(N2CCOCC2)nc(C2CCN(C(=O)C3CC3)CC2)n1
0.572 | 102 | 338 | 6.55 (≈ 29.7 µM) | – | – | CCOc1ccc(-c2csc(N)n2)cc1
0.579 | 12.4 | 1020 | – | – | – | CC(=O)N1CCC2(C=Cc3cc(C)c(C)cc3O2)CC1
0.468 | 9.33 | 39.7 | – | – | – | Cc1nnc2ncc(-c3cccc4ccnn34)cn12
0.696 | 99.1 | 3630 | – | – | – | Cc1ccnc(N2CC(O)(c3ccc(F)cc3)C2)c1C#N
2.35 | ≤ 4.74 | 39.6 | 1.1 (≈ 3.04 µM) | – | – | O=C(Nc1nc2cc(C(F)(F)F)cc(NC3CC3)n2n1)c1cccnc1
1.65 | – | – | 0.28 (≈ 0.712 µM) | – | – | COc1cc(OC)cc(-n2c(S)nnc2COc2cccc3ccccc23)c1
13.1 | 105 | 1440 | 28.2 (≈ 80.7 µM) | – | – | Clc1snnc1CN1CCCN(c2nc3ccccc3[nH]2)CC1
0.523 | 19.6 | 293 | – | – | – | Cc1ccc(F)c(-c2noc(N)c2C)c1
– | 23.2 | 106 | 32.5 (≈ 72.2 µM) | – | – | C[C@@H](Oc1cc(-c2cnn(C3CCNCC3)c2)cnc1N)c1c(Cl)ccc(F)c1Cl
37.1 | 73.9 | 275 | – | 0.0946 | – | CC#CC(=O)N1CCC[C@@H]1c1nc(-c2ccc(C(=O)Nc3ccccn3)cc2)c2c(N)nccn12
26 | 13.7 | 81 | 39 (≈ 108 µM) | – | – | CCCCc1c(C)[nH]c2nc(N(Cc3cccs3)C(C)=O)nn2c1=O
– | – | – | 38.4 (≈ 180 µM) | – | – | COCC(=O)N1CCN2C(=O)NC[C@H]2C1
2.51 | ≤ 4.74 | 83 | 29.2 (≈ 109 µM) | – | – | Cc1nccn1CCCN1C(=O)SC(C)(C)C1=O
22.6 | 7.96 | 227 | 78 (≈ 185 µM) | – | – | CCN(CC)Cc1ccc2cc(COC(=O)Nc3ccc(C(=O)NO)cc3)ccc2c1
1.98 | 22.7 | 169 | – | – | – | COc1ccccc1-c1cc(C(C)(C)C)nc(-c2ncccn2)n1

MDR1-MDCK efflux ratio | intrinsic clearance, human liver microsomes [mL/min/kg] | intrinsic clearance, rat liver microsomes [mL/min/kg] | aqueous solubility [µg/mL] | fraction unbound, human plasma | fraction unbound, rat plasma | SMILES
0.971 | ≤ 4.74 | 122 | 52.1 (≈ 177 µM) | – | – | CC(C)c1nnc(CN2CCN(c3nccs3)CC2)o1
5.2 | ≤ 4.74 | 37.3 | – | – | – | O=C(NC1CCCC1)C1=CCN(C(=O)C2CC2)C1
0.8 | 13 | 141 | 30.4 (≈ 119 µM) | – | – | Cc1cccc(C(=O)N(C)CCc2cnccn2)c1
5.96 | 11.3 | 23.8 | – | – | – | O=C(Nc1ccccc1)Nc1ccc(-c2ccc(C(=O)[C@H]3CCC[C@@H]3C(=O)O)cc2)cc1
– | 29.1 | 608 | 4.96 (≈ 17 µM) | – | – | CC(C)c1ccc(NC(=O)c2ccc3nccnc3c2)cc1
78.4 | 46.1 | 381 | – | – | – | O=C1CCCN1CCCc1nc(Cc2c(Cl)cccc2Cl)n[nH]1
0.579 | ≤ 4.74 | 18.8 | 44.5 (≈ 178 µM) | – | – | Cc1ccc(C(=O)NCC#Cc2ccccc2)cn1
0.765 | 56.6 | 2210 | 43.9 (≈ 156 µM) | – | – | Cc1cc(OCC(=O)N(C)C2CCCCCCC2)no1
2.11 | 21.4 | 233 | 28.7 (≈ 83.9 µM) | – | – | CCn1nc(Cc2ccc(OC)cc2)nc1Cc1sc(C)nc1C
– | – | – | 20.2 (≈ 101 µM) | – | – | Cc1nn(-c2ccccc2)c(C)c1CN
0.621 | 13.3 | 472 | 56.1 (≈ 206 µM) | – | – | Cc1cccc(C)c1OCC(=O)N(C)C1(C#N)CCC1
2.94 | ≤ 4.74 | 24.4 | 51.3 (≈ 152 µM) | 0.35 | 0.271 | O=C1CN(c2ccc(Nc3nccc(C(F)(F)F)n3)cn2)CCN1
0.879 | ≤ 4.74 | ≤ 10.7 | 30.6 (≈ 147 µM) | – | – | CCC(=O)NCc1ccnc(N(C)C)c1
– | – | – | 29.4 (≈ 95.8 µM) | – | – | O=C(Nc1ccc(Cl)cc1)C(=O)N(C1CCCC1)C1CC1
– | – | – | – | – | 0.223 | CC(C)NCC(O)COc1cccc2ccccc12 (configuration not stated)
1.52 | 6.77 | 78.8 | 62.3 (≈ 178 µM) | – | – | O=C(c1ccccc1)N1CCN2C(=O)N(Cc3ccccc3)C(=O)[C@H]2C1
18.2 | 138 | 3220 | – | – | – | CSc1nnc(CCCNc2cc(C)ccn2)n1C1CCCC1
2.49 | ≤ 4.74 | ≤ 10.7 | 38.8 (≈ 143 µM) | – | – | O=C(O)c1ccccc1-n1cnc(CN2CCCC2)c1
20 | 6.6 | 223 | 68.8 (≈ 177 µM) | 0.117 | – | CNC(=O)c1cccc(NC(=O)N2CCC(Oc3ccccc3Cl)CC2)c1

MDR1-MDCK efflux ratio | intrinsic clearance, human liver microsomes [mL/min/kg] | intrinsic clearance, rat liver microsomes [mL/min/kg] | aqueous solubility [µg/mL] | fraction unbound, human plasma | fraction unbound, rat plasma | SMILES
4.18 | ≤ 4.74 | ≤ 10.7 | 78 (≈ 253 µM) | – | – | COc1cc(CNC(=O)NC2CCCCC2)cc(OC)c1O
0.562 | 33.9 | 887 | – | – | – | CN1CCN(S(=O)(=O)Cc2ccc(Cl)c(Cl)c2)CC1
0.636 | ≤ 4.74 | 67.2 | 79 (≈ 318 µM) | – | – | Cc1cccc(OC2CCN(CC(N)=O)CC2)c1
– | 41.9 | ≤ 10.7 | – | – | – | O=c1[nH]c(=O)n([C@H]2C[C@H](O)[C@@H](CO)O2)cc1C(F)(F)F
– | 67.3 | 91.3 | – | – | – | Cn1c(=O)n(-c2ccc(C(C)(C)C#N)cc2)c2c3cc(-c4cnc5ccccc5c4)ccc3ncc21
4.21 | ≤ 4.74 | ≤ 10.7 | 27.7 (≈ 124 µM) | – | – | Cc1nc(NCc2scnc2C)n(C)n1
9.48 | 7.34 | ≤ 10.7 | – | – | – | Cc1cc(N2CCN(CC3CCN(C(=O)CC(C)C)CC3)CC2)n[nH]1
33.7 | 206 | 1460 | 61.7 (≈ 142 µM) | – | – | CNC(=O)c1sc2ncccc2c1[C@H]1CC[C@H](CNC(=O)CCc2ccccc2)CC1
3.58 | ≤ 4.74 | ≤ 10.7 | 25.4 (≈ 124 µM) | – | – | NCc1cccc(C(=O)N2CCCC2)c1
– | 131 | 504 | 53.4 (≈ 143 µM) | – | – | COc1cc2c(cc1OC)CN(CN1C(=O)c3cccc4cccc1c34)CC2
45.4 | ≤ 4.74 | ≤ 10.7 | 51.8 (≈ 207 µM) | – | – | CC(C)c1nnc(CNC(=O)C2(C)CCC2)n1C
1.46 | ≤ 4.74 | 76 | 3.69 (≈ 8.47 µM) | – | – | COc1ccc(C(=O)Cn2c(=O)n(-c3ccccc3F)c3nc(C)nc(C(N)=O)c32)cc1
– | 99.6 | 319 | 9.23 (≈ 38.6 µM) | – | – | CCOc1ccc(Nc2ncccc2C#N)cc1
10.9 | ≤ 4.74 | ≤ 10.7 | 51.2 (≈ 160 µM) | – | – | CCCC(=O)NCC(=O)Nc1cnc(N2CCN(C)CC2)nc1
1.42 | 49.8 | 201 | 22.9 (≈ 53.3 µM) | – | – | COc1ccc2c(c1)C=C(CN1CCC(c3cc(-c4cncnc4)cc(C)n3)CC1)CO2
0.804 | 39 | 438 | 8.9 (≈ 24.6 µM) | – | – | CC(=O)Nc1ccc(Oc2ncnc3scc(-c4ccccc4)c23)cc1
– | 68.9 | 121 | – | – | – | N#Cc1cc(N2CC(CO)C2)nc2ccc(Cl)cc12
1.26 | ≤ 4.74 | 20.3 | 17.1 (≈ 64.9 µM) | – | – | Cc1cc(-c2nnc3ccc4ccccc4n23)n(C)n1

SMILES | MDR1-MDCK efflux ratio | intrinsic clearance, human liver microsomes [mL/min/kg] | intrinsic clearance, rat liver microsomes [mL/min/kg] | aqueous solubility [µg/mL] | fraction unbound, human plasma | fraction unbound, rat plasma
Cc1nc(N2CCNCC2)c2cnn(C)c2n1 | 15.3 | ≤ 4.74 | 15.1 | – | – | –
